Source: ChEMBL document CHEMBL1201862, “PubChem BioAssay data set” (2004)
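Five compound concentrations were applied to cells in 96-well plates for 48 hours; endpoints were derived by simple linear interpolation of the resulting dose-response curve. Abbreviation: GI50, concentration required for 50% inhibition of growth.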 Activity calls are given as the source filed them. Rule as the data show it: active = GI50 up to about 1.1 µM and inactive = higher.

Tests used:
Assay in all cases: inhibition of tumour cell growth, NCI panel, 48 h
UACC-257 = system: UACC-257
PC-3 = system: PC-3
MDA-MB-231 = system: MDA-MB-231
BT-549 = system: BT-549
OVCAR-4 = system: OVCAR-4
SF-539 = system: SF-539
RXF 393 = system: RXF 393
NCI/ADR-RES = system: NCI/ADR-RES
HCT-15 = system: HCT-15
COLO 205 = system: COLO 205
LOX IMVI = system: LOX IMVI
Malme-3M = system: Malme-3M
SF-268 = system: SF-268
CAKI-1 = system: CAKI-1
TK-10 = system: TK-10
U-251 = system: U-251
SF-295 = system: SF-295
UO-31 = system: UO-31
HL-60 = system: HL-60
SR = system: SR

SMILES	GI50 (UACC-257)	GI50 (PC-3)	GI50 (MDA-MB-231)	GI50 (BT-549)	GI50 (OVCAR-4)	GI50 (SF-539)	GI50 (RXF 393)	GI50 (NCI/ADR-RES)	GI50 (HCT-15) [µM]	GI50 (COLO 205)	GI50 (LOX IMVI)	GI50 (Malme-3M)	GI50 (SF-268)	GI50 (CAKI-1)	GI50 (TK-10)	GI50 (U-251)	GI50 (SF-295)	GI50 (UO-31)	GI50 (HL-60)	GI50 (SR)
COc1ccc(C(=O)C(Br)C(Br)C(=O)O)cc1 (centres undefined)	> 100 µM (inactive)	56.5 µM (inactive)	> 100 µM (inactive)	26.5 µM (inactive)	53 µM (inactive)	21.4 µM (inactive)	24.2 µM (inactive)	30.1 µM (inactive)	37.5	21.9 µM (inactive)	21 µM (inactive)	21.4 µM (inactive)	32.8 µM (inactive)	38.3 µM (inactive)	90.2 µM (inactive)	35.3 µM (inactive)	> 100 µM (inactive)	–	–	–
Cc1ccccc1/N=N/c1cc(C)c(/N=N/c2c(O)ccc3ccccc23)cc1C	> 100 µM (inactive)	> 100 µM (inactive)	> 100 µM (inactive)	> 100 µM (inactive)	> 100 µM (inactive)	–	> 100 µM (inactive)	> 100 µM (inactive)	> 100	> 100 µM (inactive)	> 100 µM (inactive)	> 100 µM (inactive)	> 100 µM (inactive)	> 100 µM (inactive)	> 100 µM (inactive)	99.3 µM (inactive)	> 100 µM (inactive)	> 100 µM (inactive)	–	–
CC(C)=Cc1cc(CCC/C(C)=C/Cc2c(O)cc(C)c(C(=O)O)c2O)co1	> 100 µM (inactive)	> 100 µM (inactive)	39 µM (inactive)	> 100 µM (inactive)	> 100 µM (inactive)	> 100 µM (inactive)	–	> 100 µM (inactive)	> 100	> 100 µM (inactive)	86.9 µM (inactive)	–	> 100 µM (inactive)	> 100 µM (inactive)	> 100 µM (inactive)	> 100 µM (inactive)	> 100 µM (inactive)	> 100 µM (inactive)	–	–
Cc1nc2c(c(N3CCN(C)CC3)n1)Cc1ccccc1-2	57 µM (inactive)	58.7 µM (inactive)	37.8 µM (inactive)	24.3 µM (inactive)	–	84.7 µM (inactive)	> 100 µM (inactive)	49.5 µM (inactive)	32.5	37.3 µM (inactive)	–	40.8 µM (inactive)	62.4 µM (inactive)	17.1 µM (inactive)	31.4 µM (inactive)	75.3 µM (inactive)	42.4 µM (inactive)	15 µM (inactive)	42.1 µM (inactive)	–
C=CCNC(=O)N1CC(C)C(=O)Nc2ccccc21 (centres undefined)	> 100 µM (inactive)	> 100 µM (inactive)	> 100 µM (inactive)	> 100 µM (inactive)	> 100 µM (inactive)	> 100 µM (inactive)	> 100 µM (inactive)	–	> 100	> 100 µM (inactive)	> 100 µM (inactive)	> 100 µM (inactive)	> 100 µM (inactive)	> 100 µM (inactive)	> 100 µM (inactive)	> 100 µM (inactive)	> 100 µM (inactive)	> 100 µM (inactive)	> 100 µM (inactive)	> 100 µM (inactive)
Cc1ccc(-c2cc(-c3ccc(Cl)cc3)nc(/N=C3\C(=O)N(CN4CCCCC4)c4ccc(Cl)cc43)n2)cc1	22.9 µM (inactive)	34 µM (inactive)	36.2 µM (inactive)	22.4 µM (inactive)	31.5 µM (inactive)	24.5 µM (inactive)	18.3 µM (inactive)	22.1 µM (inactive)	24.4	25.2 µM (inactive)	23.3 µM (inactive)	84.3 µM (inactive)	17.9 µM (inactive)	18.1 µM (inactive)	21.7 µM (inactive)	24 µM (inactive)	42.2 µM (inactive)	–	16 µM (inactive)	–
Cn1c2ccccc2c2c3c(c4c5ccccc5n(C)c4c21)C(=O)N(Cc1ccccc1)C3=O	> 100 µM (inactive)	> 100 µM (inactive)	> 100 µM (inactive)	> 100 µM (inactive)	> 100 µM (inactive)	> 100 µM (inactive)	–	> 100 µM (inactive)	> 100	> 100 µM (inactive)	> 100 µM (inactive)	> 100 µM (inactive)	–	> 100 µM (inactive)	> 100 µM (inactive)	> 100 µM (inactive)	> 100 µM (inactive)	> 100 µM (inactive)	–	31.8 µM (inactive)
COc1ccc(/C=C/c2cc(OC)c(OC)c(OC)c2)cc1O[Si](C)(C)C(C)(C)C	10.4 µM (inactive)	4.72 µM (inactive)	5.02 µM (inactive)	12.1 µM (inactive)	19 µM (inactive)	2.32 µM (inactive)	3.09 µM (inactive)	–	3.33	15.7 µM (inactive)	–	–	15.8 µM (inactive)	41.9 µM (inactive)	27.1 µM (inactive)	3.11 µM (inactive)	26 µM (inactive)	7.31 µM (inactive)	–	–
N#C/C(=N/Nc1[nH]cnc1C(N)=O)C(=O)Nc1ccccc1	76.2 µM (inactive)	7.89 µM (inactive)	32.3 µM (inactive)	> 100 µM (inactive)	14.6 µM (inactive)	–	59.4 µM (inactive)	3.45 µM (inactive)	35.5	16.5 µM (inactive)	–	5.48 µM (inactive)	8.17 µM (inactive)	–	18.5 µM (inactive)	> 100 µM (inactive)	17.5 µM (inactive)	3.43 µM (inactive)	28.9 µM (inactive)	–
CC(C)CCNC(=O)C(CC(C)C)NC(=O)[C@H]1O[C@@H]1C(=O)O (some centres undefined)	> 100 µM (inactive)	> 100 µM (inactive)	> 100 µM (inactive)	> 100 µM (inactive)	> 100 µM (inactive)	> 100 µM (inactive)	–	> 100 µM (inactive)	> 100	> 100 µM (inactive)	–	> 100 µM (inactive)	> 100 µM (inactive)	> 100 µM (inactive)	–	> 100 µM (inactive)	> 100 µM (inactive)	> 100 µM (inactive)	–	–
CC/C(Cl)=N\OC(=O)Nc1ccccc1OC(F)(F)F	17.2 µM (inactive)	18.1 µM (inactive)	17.1 µM (inactive)	3.11 µM (inactive)	19.8 µM (inactive)	12.4 µM (inactive)	16.7 µM (inactive)	14.9 µM (inactive)	3.21	2.1 µM (inactive)	2.34 µM (inactive)	4.52 µM (inactive)	25.2 µM (inactive)	1.89 µM (inactive)	11.6 µM (inactive)	26.4 µM (inactive)	17.2 µM (inactive)	8.18 µM (inactive)	1.97 µM (inactive)	–
Cc1cc(C)n(C2=NS(=O)(=O)c3ccccc3N2C)n1	> 100 µM (inactive)	> 100 µM (inactive)	> 100 µM (inactive)	> 100 µM (inactive)	> 100 µM (inactive)	> 100 µM (inactive)	> 100 µM (inactive)	> 100 µM (inactive)	> 100	> 100 µM (inactive)	> 100 µM (inactive)	–	> 100 µM (inactive)	> 100 µM (inactive)	> 100 µM (inactive)	> 100 µM (inactive)	> 100 µM (inactive)	> 100 µM (inactive)	> 100 µM (inactive)	–
CC1(C)CC2(C)CC1CC2(O)c1ccccc1 (centres undefined)	> 100 µM (inactive)	> 100 µM (inactive)	> 100 µM (inactive)	> 100 µM (inactive)	> 100 µM (inactive)	> 100 µM (inactive)	> 100 µM (inactive)	–	–	> 100 µM (inactive)	–	> 100 µM (inactive)	> 100 µM (inactive)	> 100 µM (inactive)	> 100 µM (inactive)	> 100 µM (inactive)	> 100 µM (inactive)	> 100 µM (inactive)	> 100 µM (inactive)	> 100 µM (inactive)
COC(=O)C1CCC(=S)N1C(=O)c1ccccc1 (centres undefined)	> 100 µM (inactive)	> 100 µM (inactive)	> 100 µM (inactive)	> 100 µM (inactive)	> 100 µM (inactive)	–	> 100 µM (inactive)	> 100 µM (inactive)	> 100	> 100 µM (inactive)	–	> 100 µM (inactive)	> 100 µM (inactive)	> 100 µM (inactive)	> 100 µM (inactive)	> 100 µM (inactive)	> 100 µM (inactive)	> 100 µM (inactive)	–	–
O=C1CCCCCCCCCCC1CN1CCCC1 (centres undefined)	20 µM (inactive)	30.8 µM (inactive)	47.9 µM (inactive)	31.4 µM (inactive)	–	22.1 µM (inactive)	15.1 µM (inactive)	40 µM (inactive)	32.8	20.1 µM (inactive)	19.4 µM (inactive)	31.6 µM (inactive)	50 µM (inactive)	43.1 µM (inactive)	32.3 µM (inactive)	26.7 µM (inactive)	29.9 µM (inactive)	35.1 µM (inactive)	32 µM (inactive)	–
CCN1CCC(O)(/C=C/c2ccc(Cl)c(Cl)c2)C(C(=O)/C=C/c2ccc(Cl)c(Cl)c2)C1 (centres undefined)	0.986 µM (active)	0.329 µM (active)	0.635 µM (active)	0.733 µM (active)	0.632 µM (active)	1.95 µM (inactive)	1.35 µM (inactive)	0.843 µM (active)	1.89	0.705 µM (active)	0.794 µM (active)	1.05 µM (active)	1.06 µM (active)	1.82 µM (inactive)	1.32 µM (inactive)	2.11 µM (inactive)	0.713 µM (active)	0.995 µM (active)	0.246 µM (active)	–
